According to patent US20240285497A1, “METHOD FOR EVALUATING AN ABILITY OF A TEST SAMPLE TO TRIGGER A FOREIGN BODY REACTION IN THE SKIN, A METHOD FOR SCREENING A SUBSTANCE HAVING AN ABILITY TO INHIBIT A FOREIGN BODY REACTION IN THE SKIN, AND AN AGENT FOR INHIBITING A FOREIGN BODY REACTION IN THE SKIN” (priority 2021, published 2024):
Marks after values point to notes of the source that are not given here.

What was measured:
[1] = system: matrix metalloprotease 2 (MMP2) mRNA; experiment: MMP2 mRNA expression in HaCaT cells contacted with test substance, quantitative PCR; type: cell-based, human; conditions: 1 μM, 10 μM and 100 μM, HaCaT cells, 24 hours
Description: In this experiment, the effect of Fraglide-1 on the expression of MMP9 in the level of mRNA was examined first. Specifically, HaCaT cells were treated with Fraglide-1 in the same manner as described in Experiment 3-1 except that HaCaT cells were incubated for 24 hours in the medium containing 0 μM, 1 μM, 10 μM, and 100 μM of Fraglide-1 instead of being incubated for 24 hours in the medium containing both FICZ and Fraglide-1. The total RNA was then extracted, cDNA was prepared, and the quantitative PCR was performed using the obtained cDNA. Herein, the procedure of the quantitative PCR was the same as described in Experiment 3-1 except that the primers shown in below Table 4 were used. In this experiment, the expression of MMP2 mRNA was also quantified in addition to MMP9 mRNA. MMP2 is known as a MMP which is not transcriptionally regulated by a xenobiotic responsive element (XRE). […]
Next, experiments were performed to inhibit MMP9 and MMP2 in HaCaT cells using retinoic acid (CAS RN: 302-79-4) and nicotinamide (CAS RN: 98-92-0), which are known to be substances having anti-wrinkle effect. […] Then, the total RNA was extracted, cDNA was prepared, and the quantitative PCR was carried out using the obtained cDNA. […]

HaCaT cells = experiment: Safety evaluation: cell viability of HaCaT cells by WST-1 method; type: cell-based, human; conditions: 24 hours
Description: The safety of Fraglide-1 was examined by a viable cell counting method using a water-soluble tetrazolium salt (WST-1). Specifically, HaCaT cells were suspended in DMEM medium at the concentration of 1×10^5 cells/mL. The obtained cell suspension was seeded in a white 96-well plate (ThermoFisher Scientific; Catalogue No. 136102) in an amount of 100 μL per well so that the number of cells per well was 10,000 cells/well. After 24 hours incubation at 37° C. and 5% CO2 in accordance with a conventional method, DMEM medium was removed and then either 100 μL of DMEM medium containing Fraglide-1 at a predetermined concentration or, as a control, 100 μL of DMEM medium not containing Fraglide-1 was added, followed by further incubation for 24 hours at 37° C. and 5% CO2. After the incubation for 24 hours, the number of viable cells was measured by using a premix reagent containing WST-1 (“Premix WST-1 Cell Proliferation Assay System”, Catalogue No. MK400, Takara Bio Inc., Shiga, Japan) in accordance with the procedure described in Experiment 1-2. The results shown in FIG. 16 are the mean of values obtained from three independent experiments, and the error bars represent standard error (SE).

[2] = system: human liver cancer-derived cell line HepG2 cells; conditions: cited from earlier work
XRE-NLuc::HaCaT cells = experiment: in vitro; conditions: read-out: LC50; XRE-NLuc::HaCaT cells, median lethal concentration
Description: After the above-described incubation for 24 hours, the number of cells in each well was counted by a colorimetric method based on the degradation of tetrazolium salt (WST-1) by mitochondrial dehydrogenase in viable cells. Specifically, 3 μL of Premix WST-1 (Product Name “Premix WST-1 Cell Proliferation Assay System”; Takara Bio Inc., Shiga, Japan; Catalogue No.: MK400) was added to each well of 96 well plates, and then the cells were cultured for 1 hour at 37° C., 5% CO2. Thereafter, 93 μL of cell culture supernatant was removed from each well to measure the absorbance of the supernatant in each well. The removed supernatants were transferred to transparent 96 well plates, and then the absorbance at 450 nm (A450) and, as a reference wavelength, the absorbance at 670 nm (A670) were measured using iMark microplate reader (Bio-Rad; Catalogue No.: 168-1130JA). A value (A450-A670) was obtained by subtracting the absorbance at 670 nm (A670) from the absorbance at 450 nm (A450). The relative viable cell count (%) was expressed as a relative value with the value (A450-A670) obtained for the negative control as 100%.
The ability of each test sample to trigger a foreign body reaction was evaluated using XRE-NLuc::HaCaT cells in the same manner as in Experiment 1-2, except that I3C (Indole-3-carbinol, CAS RN: 700-06-1), ITE (2-(1′H-indole-3′-carbonyl)-thiazole-4-carboxylic acid methyl ester, CAS RN: 448906-42-1), and Indirubin (CAS RN: 479-41-4) were used instead of FICZ as test samples and the amount of each test sample added to the DMEM medium was appropriately changed.

| Compound | MMP2 mRNA expression [1] | cell viability (HaCaT cells; 500 μM, HaCaT cells) | CC50 (HaCaT cells; read-out: LC50 (Median Lethal Concentration) against HaCaT cells) | Literature Value Maximum Effective concentration Max. Induction [2] | CC50 (XRE-NLuc::HaCaT cells) |
| --- | --- | --- | --- | --- | --- |
| O=C1C=C(c2ccccc2)C(O)O1 (centres unmarked) [Fraglide-1, 5-hydroxy-4-phenyl-2(5H)butenolide] | no decrease in the mRNA expression was observed | more than 50% | > 500 µM | – | – |
| 6-formylindolo[3,2-b] carbazole [FICZ] | – | – | – | 1** μM | > 5 µM |
